Experimental data from US12043674B2, “Synthetic cyclic peptides and methods of preparation and use thereof” (Auburn University, priority 2020, dated 2024).
Entries after “also recorded” stand apart in the source; their conditions may differ. Ends that are not written are not given here.

Tests used:
[1] = Enzymatic degradation study: proteolytic stability on incubation with chymotrypsin (HPLC, LCMS); type: in vitro ADME; details: chymotrypsin (isolated protease) in Tris buffer, pH 7.5; up to 24 h; HPLC and MS analysis; read-out: cleavage observed in the presence of chymotrypsin
chymotrypsin = chymotrypsin (Bos taurus, UniProt P00766); experiment: as above; type: in vitro ADME; details: for remaining at 5 min, 1.5 mM / remaining at 0.25 h, 1.5 mM / remaining at 0.5 h, 1.5 mM / remaining at 0.75 h, 1.5 mM / remaining at 1 h, 1.5 mM / remaining at 1.5 h, 1.5 mM / remaining at 2 h, 1.5 mM / remaining at 8 h, 1.5 mM: chymotrypsin (isolated protease) in Tris buffer, read-out: enzyme degradation studies, peptide at time point; for remaining at 5 min, 1.5 mM / remaining at 0.25 h, 1.5 mM / remaining at 0.5 h, 1.5 mM / remaining at 0.75 h, 1.5 mM / remaining at 1 h, 1.5 mM / remaining at 1.5 h, 1.5 mM / remaining at 2 h, 1.5 mM / remaining at 8 h, 1.5 mM / enzyme degradation studies, peptide at time point: chymotrypsin, 10 mM Tris buffer pH 7.5, peptide 1.5 mM; for remaining at 0.25 h, 1.5 mM: time 15 min; for remaining at 0.5 h, 1.5 mM: time 30 min; for remaining at 0.75 h, 1.5 mM: time 45 min; for remaining at 1 h, 1.5 mM: time 60 min; for remaining at 1.5 h, 1.5 mM: time 90 min; for remaining at 2 h, 1.5 mM: time 120 min; for remaining at 8 h, 1.5 mM: time 480 min; for enzyme degradation studies, peptide at time point: time 0 min
Experimental: FIG. 25, comprising FIG. 25A through FIG. 25C, depicts representative enzymatic Degradation Studies. Linear peptide AVGPFEY (SEQ ID NO: 13) and cyclic peptide cyc(AVGPFEY) (SEQ ID NO: 13) 2a were individually dissolved in 10 mM Tris buffer pH 7.5 (final conc. 1.5 mM). A chymotrypsin stock solution was created by the addition of 1 mg chymotrypsin in 100 μL CaCl2 (0.01 M), 100 μL tris buffer (0.1 M pH 7.5), 100 μL HCl (1 mM). 10 μL of the chymotrypsin stock solution was added to both linear peptide AVGPFEY (SEQ ID NO: 13) and cyclic peptide cyc(AVGPFEY) (SEQ ID NO: 13) 2a solutions. Samples (100 μL) were taken after regular intervals of time from both linear and cyclic peptide solutions. 100 μL of each sample was quenched with 400 μL of frozen water and solutions were frozen at −80° C. at the following time intervals: 0 min, 5 min, 15 min, 30 min, 45 min, 60 min, 90 min, 120 min, and 480 min. Each sample was lyophilized and analyzed using HPLC and LCMS. FIG. 25A depicts a schematic representation of the enzyme degradation of cyclic peptide cyc(AVGPFEY) (SEQ ID NO: 13) 2a. FIG. 25B depicts a schematic representation of the enzyme degradation of linear peptide 1a. FIG. 25C depicts representative HPLC data of various time aliquots of the enzyme degradation of linear peptide 1a.
To evaluate the potential of 4-imidazolidinone cyclic peptides for biological applications, the proteolytic stability of a cyclic peptide cyc(AVGPFEY) (SEQ ID NO: 13) 2a in comparison with its linear counterpart AVGPFEY (SEQ ID NO: 13) was examiner. Linear peptide AVGPFEY ID NO: 13) and cyclic peptide cyc(AVGPFEY) (SEQ ID NO: 13) 2a were incubated with chymotrypsin, which hydrolyzes peptide bonds at the C-terminal side of aromatic residues, such as Phe.

[2] = CyClick: N-terminal amine condenses with side-chain or C-terminal aldehyde (or ketone) to a cyclic imine, then the residue-2 amide N attacks to give a 4-imidazolidinone; DMAP (7 equiv); details: H2O/DMF 1:1, 5.0 mM, 25.0 °C
[3] = Stability of 4-imidazolidinone cyclic peptide under different pH conditions (hydrolysis/degradation, HPLC); type: physicochemical; details: 10 mM phosphate buffer, pH 3.5, 5.5, 7.5, 8.5, 10.5, room temperature, up to 24 h
Experimental: FIG. 22, comprising FIG. 22A through FIG. 22D, depicts representative effects of 4-imidazolidinone in cyclic peptides. FIG. 22A depicts representative VT-NMR spectra of head-to-tail 4-imidazolidinone cyclic peptide 4a in aqueous solutions. FIG. 22B depicts representative turn structure of 4-imidazolidinone cyclic peptide 4a obtained by running ForceGen (Jain A N et al., 2019, J. Comput.-Aided Mol. Des., 33:531) with NMR constraints. […] Cyclic peptide cyc(NVGPFEY) (SEQ ID NO: 19) 2f (2.5 mg) was dissolved in H2O to form a stock solution (500 μL, conc. 7 mM). 100 μL of the stock was added to 400 μL of sodium phosphate buffer (10 mM) at the following pH values: 3.5, 5.5, 7.5, 8.5, 10.5 (total conc. 1.4 mM). The reactions were shaken at room temperature. Samples were analyzed by injecting them in HPLC after regular intervals of time. […] FIG. 22D depicts representative proteolytic stability of 4-imidazolidinone cyclic peptide 2a as compared to its linear counterpart.
The stability of cyclic peptides is a major concern, for pharmaceutical applications. To evaluate the stability of a 4-imidazolidinone cyclic peptide, cyclic peptide cyc(NVGPFEY) (SEQ ID NO: 19) 2f was incubated under different pH conditions.

`CC(C)[C@H]1C(=O)NCC(=O)N2CCC[C@H]2C(=O)N[C@@H](Cc2ccccc2)C(=O)N[C@H](C(=O)N[C@@H](Cc2ccc(O)cc2)C(N)=O)CCC(=O)NC[C@@H]2N[C@@H](C)C(=O)N21` [2a, cyc(Ala-Val-Gly-Pro-Phe-Glu)Tyr] gave a metabolised at 24 h, 1.5 mM [1] of 20%, a remaining at 5 min, 1.5 mM (chymotrypsin) of 100% and a remaining at 0.25 h, 1.5 mM (chymotrypsin) of 100%. For the same compound, the remaining at 0.5 h, 1.5 mM (chymotrypsin) was 100%, the remaining at 0.75 h, 1.5 mM (chymotrypsin) was 100% and the remaining at 1 h, 1.5 mM (chymotrypsin) was 100%. The remaining at 1.5 h, 1.5 mM (chymotrypsin) was 100%, the remaining at 2 h, 1.5 mM (chymotrypsin) was 100% and the remaining at 8 h, 1.5 mM (chymotrypsin) was 91.9%. For the same compound, the enzyme degradation studies, peptide at time point (chymotrypsin) was 100%.
With `C[C@@H]1NC2[C@H](C)NC(=O)[C@@H]3CCCN3C(=O)CNC(=O)[C@H](Cc3ccccc3)N2C1=O` (stereo partly drawn) [H-Ala-Phe-Gly-Pro-Ala-H (C-terminal aldehyde)] the ring closure, conversion by HPLC ([2]; from C[C@H](N)C(=O)N[C@@H](Cc1ccccc1)C(=O)NCC(=O)N1CCC[C@H]1C(=O)N[C@@H](C)C=O, 12-membered ring) was 71%.
For `C[C@@H]1N=CCNC(=O)CC[C@@H](C(=O)N[C@@H](Cc2ccc(O)cc2)C(N)=O)NC(=O)[C@H](Cc2ccccc2)NC(=O)[C@H](C)NC(=O)CNC(=O)[C@@H]2CCCN2C1=O` [H-Ala-Pro-Gly-Ala-Phe-Glu(NH-CH2-CHO)-Tyr-NH2], the ring closure, conversion by HPLC ([2]; from C[C@H](N)C(=O)N1CCC[C@H]1C(=O)NCC(=O)N[C@@H](C)C(=O)N[C@@H](Cc1ccccc1)C(=O)N[C@@H](CCC(=O)NCC=O)C(=O)N[C@@H](Cc1ccc(O)cc1)C(N)=O, 20-membered ring) was 0%.
`CC(C)[C@H]1C(=O)NCC(=O)N2CCC[C@H]2C(=O)N[C@@H](Cc2ccccc2)C(=O)N[C@H](C(=O)N[C@@H](Cc2ccc(O)cc2)C(N)=O)CCC(=O)NCC2N[C@@H](C)C(=O)N21` (stereo partly drawn) [H-Ala-Val-Gly-Pro-Phe-Glu(NH-CH2-CHO)-Tyr-NH2] showed a ring closure, conversion by HPLC ([2]; from CC(C)[C@H](NC(=O)[C@H](C)N)C(=O)NCC(=O)N1CCC[C@H]1C(=O)N[C@@H](Cc1ccccc1)C(=O)N[C@@H](CCC(=O)NCC=O)C(=O)N[C@@H](Cc1ccc(O)cc1)C(N)=O, 20-membered ring, 8.0 h) of 99%.
For `CC(C)[C@H]1C(=O)NCC(=O)N2CCC[C@H]2C(=O)N[C@@H](Cc2ccccc2)C(=O)N[C@H](C(=O)N[C@@H](Cc2ccc(O)cc2)C(N)=O)CCCCNC(=O)CCC2(C)N[C@@H](C)C(=O)N12` (stereo partly drawn) [H-Ala-Val-Gly-Pro-Phe-Lys(levulinoyl)-Tyr-NH2], the ring closure, conversion by HPLC ([2]; from CC(=O)CCC(=O)NCCCC[C@H](NC(=O)[C@H](Cc1ccccc1)NC(=O)[C@@H]1CCCN1C(=O)CNC(=O)[C@@H](NC(=O)[C@H](C)N)C(C)C)C(=O)N[C@@H](Cc1ccc(O)cc1)C(N)=O, 23-membered ring) was 36%.
For `NCCCC[C@H](NC(=O)[C@@H]1CCC(=O)NCC2N[C@@H](CC(N)=O)C(=O)N2[C@@H](Cc2ccccc2)C(=O)N2CCC[C@H]2C(=O)N[C@@H](Cc2ccccc2)C(=O)N1)C(N)=O` (stereo partly drawn) [H-Asn-Phe-Pro-Phe-Glu(NH-CH2-CHO)-Lys-NH2], the ring closure, conversion by HPLC ([2]; from NCCCC[C@H](NC(=O)[C@H](CCC(=O)NCC=O)NC(=O)[C@H](Cc1ccccc1)NC(=O)[C@@H]1CCCN1C(=O)[C@H](Cc1ccccc1)NC(=O)[C@@H](N)CC(N)=O)C(N)=O, 17-membered ring) was 70%.
`CC(C)[C@H]1C(=O)NCC(=O)N2CCC[C@H]2C(=O)N[C@@H](Cc2ccccc2)C(=O)N[C@H](C(=O)N[C@@H](Cc2ccc(O)cc2)C(N)=O)CCC(=O)NCC2N[C@@H](CC(N)=O)C(=O)N21` (stereo partly drawn) [H-Asn-Val-Gly-Pro-Phe-Glu(NH-CH2-CHO)-Tyr-NH2] gave a ring closure, conversion by HPLC ([2]; from CC(C)[C@H](NC(=O)[C@@H](N)CC(N)=O)C(=O)NCC(=O)N1CCC[C@H]1C(=O)N[C@@H](Cc1ccccc1)C(=O)N[C@@H](CCC(=O)NCC=O)C(=O)N[C@@H](Cc1ccc(O)cc1)C(N)=O, 20-membered ring, 16.0 h) of 85%.
Work on `CC(C)[C@H]1C(=O)NCC(=O)N2CCC[C@H]2C(=O)N[C@@H](Cc2ccccc2)C(=O)N[C@H](C(=O)N[C@@H](Cc2ccc(O)cc2)C(N)=O)CCC(=O)NCC2N[C@@H](CCCCN)C(=O)N21` (stereo partly drawn) [H-Lys-Val-Gly-Pro-Phe-Glu(NH-CH2-CHO)-Tyr-NH2] yielded a ring closure, conversion by HPLC ([2]; from CC(C)[C@H](NC(=O)[C@@H](N)CCCCN)C(=O)NCC(=O)N1CCC[C@H]1C(=O)N[C@@H](Cc1ccccc1)C(=O)N[C@@H](CCC(=O)NCC=O)C(=O)N[C@@H](Cc1ccc(O)cc1)C(N)=O, 20-membered ring) of 84%.
For `C[C@@H]1NC(=O)[C@@H]2CCCN2C(=O)CN2C(=O)[C@H](Cc3ccccc3)NC12` (stereo partly drawn) [H-Phe-Gly-Pro-Ala-H (C-terminal aldehyde)], the ring closure, conversion by HPLC ([2]; from C[C@@H](C=O)NC(=O)[C@@H]1CCCN1C(=O)CNC(=O)[C@@H](N)Cc1ccccc1, 9-membered ring, 24.0 h) was 0%.
`CC(C)[C@H]1C(=O)NCC(=O)N2CCC[C@H]2C(=O)N[C@@H](Cc2ccccc2)C(=O)N[C@H](C(=O)N[C@@H](Cc2ccc(O)cc2)C(N)=O)CCC(=O)NCC2N[C@@H](CO)C(=O)N21` (stereo partly drawn) [H-Ser-Val-Gly-Pro-Phe-Glu(NH-CH2-CHO)-Tyr-NH2] gave a ring closure, conversion by HPLC ([2]; from CC(C)[C@H](NC(=O)[C@@H](N)CO)C(=O)NCC(=O)N1CCC[C@H]1C(=O)N[C@@H](Cc1ccccc1)C(=O)N[C@@H](CCC(=O)NCC=O)C(=O)N[C@@H](Cc1ccc(O)cc1)C(N)=O, 20-membered ring) of 100%.
In the case of AVGPFEY-NH2 [AVGPFEY], the “time until fully consumed in the presence of chymotrypsin” value (chymotrypsin; HPLC and MS analysis) is reported as 90 min, the remaining at 5 min, 1.5 mM (chymotrypsin) is reported as 82.9% and the remaining at 0.25 h, 1.5 mM (chymotrypsin) is reported as 66.3%. The remaining at 0.5 h, 1.5 mM (chymotrypsin) was 38.6%, the remaining at 0.75 h, 1.5 mM (chymotrypsin) was 20.2% and the remaining at 1 h, 1.5 mM (chymotrypsin) was 10.9%. The remaining at 1.5 h, 1.5 mM (chymotrypsin) was 7.7%, the remaining at 2 h, 1.5 mM (chymotrypsin) was 0% and the remaining at 8 h, 1.5 mM (chymotrypsin) was 0%. The half-life at 1.5 mM (chymotrypsin; chymotrypsin in Tris buffer, pH 7.5, HPLC and MS analysis, read-out: half-life in the presence of chymotrypsin) was 20 min and the enzyme degradation studies, peptide at time point (chymotrypsin) was 100%.
With “cyc(Asn-Val-Gly-Pro-Phe-Glu)-Tyr (NVGPFEY; not fully specified (residue 6, bridges); printed as cyc(Asn-Val-Gly-Pro-Phe-Glu)-Tyr; also: Glu side-chain aldehyde, bridge at N, other end not in the chain) [2f]” the “resistance to hydrolysis/degradation under different pH conditions” value [3] was “remained unchanged; also recorded: No degradation”.
